Test results as given in patent US11787785B2 (NOVARTIS AG, priority 2021, dated 2023).

Tests used:
[1] = target: T1, WIZ protein (HiBit-WIZ fusion protein) (Homo sapiens, UniProt O95785+Q96SW2); test: Quantification of WIZ protein levels in HiBit tag fusion protein assay (WIZ HiBit assay in 293T cells); format: cell-based; conditions: for Dmax at 25 µM / remaining activity at 25 µM: HEK-293T, 293T cells; for Dmax at 25 µM: 100 − Amax, read-out: % degradation of WIZ (100 − Amax); for remaining activity at 25 µM: DMSO-normalized, curve-fitted percentage of WIZ-HiBit remaining at 25 uM, read-out: WIZ Amax; for DC50: WIZ HiBit assay in 293T cells, 10-point, 5-fold dose response, highest concentration 25 μM, about 18 hours, read-out: WIZ AC50
T1 construct: expressed in transfected cells
Procedure, shortened: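 Luminescence after LgBit complementation quantified remaining HiBit-WIZ in lysates of single-copy stable 293T lines. Cells dosed ~18 h at 37 °C with 10-point, 5-fold dilutions (highest 25 μM); DMSO set to 100%, fitted curve gave % remaining at 25 μM (Amax).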

Fetal Hemoglobin (HbF) = test: Small molecule HbF induction assay (mPB CD34+ cells erythroid differentiated, flow cytometry); format: cell-based; conditions: Homo sapiens, 168 h; for Emax: 7 days with compound, baseline DMSO approximately 30-40%, read-out: HbF Amax (highest percentage of cells staining positive for HbF in the fitted dose-response curve); for EC50: erythroid differentiated in presence of compound for 7 days, flow cytometry
Protocol: Cryopreserved primary human CD34^+ hematopoietic stem and progenitor cells were obtained from AllCells, LLC. The CD34^+ cells were isolated from the peripheral blood of healthy donors after mobilization by administration of granulocyte colony-stimulating factor. Cells were differentiated ex vivo toward the erythroid lineage using a 2-phase culture method. In the first phase, cells were cultured in StemSpan™ Serum-Free Expansion Media (SFEM) ([…] Technologies Inc.) supplemented with rhSCF (50 ng/mL, Peprotech®, Inc.), rhIL-6 (50 ng/mL, Peprotech®, Inc.), rhIL-3 (50 ng/mL, Peprotech®, Inc.), and rhFlt3L (50 ng/mL, Peprotech®, Inc.), and 1× antibiotic-antimycotic (Life Technologies, Thermo Fisher Scientific) for 6 days at 37° C. with 5% CO2. During the second phase, cells were cultured in erythroid differentiation media at 5,000 cells/mL in the presence of compound for 7 days at 37° C. with 5% CO2. Erythroid Differentiation Media is comprised of IMDM (Life Technologies) supplemented with insulin (10 μg/mL, Sigma Aldrich), heparin (2 U/mL Sigma Aldrich), holo-transferrin (330 μg/mL, Sigma Aldrich), human serum AB (5%, Sigma Aldrich), hydrocortisone (1 μM, […] Technologies), rhSCF (100 ng/mL, Peprotech®, Inc.), rhIL-3 (5 ng/mL, Peprotech®, Inc.), rhEPO (3 U/mL, Peprotech®, Inc.), and 1× antibiotic-antimycotic. All compounds were dissolved and diluted into dimethylsulfoxide (DMSO) and were added to culture media for a final concentration of 0.3% DMSO for testing in a 7-point, 1:3 dilution series starting at 30 uM.
Staining and Flow Cytometry
For viability analysis, samples were washed and resuspended in phosphate-buffered saline (PBS) and stained with LIVE/DEAD™ Fixable Violet Dead Cell Stain Kit (Life Technologies, L34963) for 20 minutes. Cells were then washed again with PBS and resuspended in PBS supplemented with 2% fetal bovine serum (FBS), and 2 mM EDTA to prepare for cell surface marker analysis. Cells were labeled with allophycocyanin-conjugated CD235a (1:100, BD Biosciences, 551336) and Brilliant Violet-conjugated CD71 (1:100, BD Biosciences, 563767) antibodies for 20 minutes. For analysis of cytoplasmic Fetal Hemoglobin (HbF), cells were fixed and permeabilized using the Fixation (BioLegend®, 420801) and Permeabilization Wash (BioLegend®, 421002) Buffers according to the manufacturer's protocol. During the permeabilization step, cells were stained with phycoerythrin-conjugated or FITC-conjugated HbF-specific antibody (1:10-1:25, Invitrogen™, MHFH04-4) for 30 minutes. Stained cells were washed with phosphate-buffered saline before analysis on the FACSCanto™ II flow cytometer or LSRFortessa™ (BD Biosciences). Data analysis was performed with FIowJo™ Software (BD Biosciences).
HbF Induction Activity of Compounds (Table 2)
mPB CD34+ cells were expanded for 6 days, then erythroid differentiated in the presence of compound for 7 days. Cells were fixed, stained and analyzed by flow cytometry. […] HbF Amax=the highest percentage of cells staining positive for HbF (% HbF+ cells) in the fitted dose-response curve. The baseline % HbF+ cells for DMSO-treated cells is approximately 30-40%.

T1 sequence (O95785 whole entry, the tested form may be a part): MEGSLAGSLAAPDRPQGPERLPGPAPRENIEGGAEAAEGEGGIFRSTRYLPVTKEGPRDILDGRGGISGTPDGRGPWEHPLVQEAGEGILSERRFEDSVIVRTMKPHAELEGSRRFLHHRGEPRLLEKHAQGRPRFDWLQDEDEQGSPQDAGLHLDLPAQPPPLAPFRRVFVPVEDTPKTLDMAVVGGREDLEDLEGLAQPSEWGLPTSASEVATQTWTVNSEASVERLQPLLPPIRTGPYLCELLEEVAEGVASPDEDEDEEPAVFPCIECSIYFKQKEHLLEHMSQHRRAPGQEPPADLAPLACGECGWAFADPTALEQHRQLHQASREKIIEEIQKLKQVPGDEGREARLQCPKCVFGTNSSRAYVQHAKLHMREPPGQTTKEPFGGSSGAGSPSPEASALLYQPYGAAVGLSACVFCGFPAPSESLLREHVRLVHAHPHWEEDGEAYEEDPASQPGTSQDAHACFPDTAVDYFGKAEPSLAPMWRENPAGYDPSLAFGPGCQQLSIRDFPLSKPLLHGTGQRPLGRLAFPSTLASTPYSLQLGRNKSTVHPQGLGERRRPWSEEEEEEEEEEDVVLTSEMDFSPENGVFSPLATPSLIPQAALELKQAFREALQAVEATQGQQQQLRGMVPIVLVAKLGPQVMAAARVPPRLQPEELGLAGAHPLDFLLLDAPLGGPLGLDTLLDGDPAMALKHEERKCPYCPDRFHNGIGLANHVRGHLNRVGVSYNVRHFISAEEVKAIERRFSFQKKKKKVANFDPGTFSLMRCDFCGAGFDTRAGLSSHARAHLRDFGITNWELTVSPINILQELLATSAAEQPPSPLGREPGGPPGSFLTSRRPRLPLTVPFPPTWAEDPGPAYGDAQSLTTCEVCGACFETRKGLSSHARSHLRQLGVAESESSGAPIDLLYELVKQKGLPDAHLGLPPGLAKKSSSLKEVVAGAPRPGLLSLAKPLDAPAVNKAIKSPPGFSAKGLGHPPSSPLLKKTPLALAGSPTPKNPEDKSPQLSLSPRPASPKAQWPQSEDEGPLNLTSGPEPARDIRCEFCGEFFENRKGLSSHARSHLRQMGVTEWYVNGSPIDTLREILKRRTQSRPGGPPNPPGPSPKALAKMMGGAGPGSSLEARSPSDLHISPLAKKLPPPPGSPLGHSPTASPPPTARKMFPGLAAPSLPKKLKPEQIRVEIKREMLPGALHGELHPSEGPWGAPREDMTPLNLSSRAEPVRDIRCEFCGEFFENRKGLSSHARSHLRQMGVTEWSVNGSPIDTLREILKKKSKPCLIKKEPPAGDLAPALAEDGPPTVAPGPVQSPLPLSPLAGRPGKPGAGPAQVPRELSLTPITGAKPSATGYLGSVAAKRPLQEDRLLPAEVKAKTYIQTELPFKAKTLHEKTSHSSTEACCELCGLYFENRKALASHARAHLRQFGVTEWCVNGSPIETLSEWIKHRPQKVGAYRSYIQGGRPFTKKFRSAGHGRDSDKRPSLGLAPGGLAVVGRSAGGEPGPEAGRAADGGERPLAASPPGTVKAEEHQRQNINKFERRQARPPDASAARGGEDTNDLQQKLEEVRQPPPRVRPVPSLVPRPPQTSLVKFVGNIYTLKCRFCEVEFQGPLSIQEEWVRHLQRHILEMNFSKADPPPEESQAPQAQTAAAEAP
T1 sequence (Q96SW2 whole entry, the tested form may be a part): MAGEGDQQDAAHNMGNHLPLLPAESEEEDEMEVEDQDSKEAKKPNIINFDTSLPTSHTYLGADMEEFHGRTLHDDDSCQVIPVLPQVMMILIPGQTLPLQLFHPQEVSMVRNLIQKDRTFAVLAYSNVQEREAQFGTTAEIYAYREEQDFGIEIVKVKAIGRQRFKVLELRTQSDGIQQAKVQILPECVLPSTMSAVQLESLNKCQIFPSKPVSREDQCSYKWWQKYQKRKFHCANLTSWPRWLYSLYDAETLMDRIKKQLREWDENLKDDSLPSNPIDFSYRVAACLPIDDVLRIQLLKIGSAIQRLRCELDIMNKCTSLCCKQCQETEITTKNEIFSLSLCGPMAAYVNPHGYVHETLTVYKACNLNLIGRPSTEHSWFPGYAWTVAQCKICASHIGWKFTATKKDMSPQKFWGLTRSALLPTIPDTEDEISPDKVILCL
T1 sequence (Q16531 whole entry partner, the tested form may be a part): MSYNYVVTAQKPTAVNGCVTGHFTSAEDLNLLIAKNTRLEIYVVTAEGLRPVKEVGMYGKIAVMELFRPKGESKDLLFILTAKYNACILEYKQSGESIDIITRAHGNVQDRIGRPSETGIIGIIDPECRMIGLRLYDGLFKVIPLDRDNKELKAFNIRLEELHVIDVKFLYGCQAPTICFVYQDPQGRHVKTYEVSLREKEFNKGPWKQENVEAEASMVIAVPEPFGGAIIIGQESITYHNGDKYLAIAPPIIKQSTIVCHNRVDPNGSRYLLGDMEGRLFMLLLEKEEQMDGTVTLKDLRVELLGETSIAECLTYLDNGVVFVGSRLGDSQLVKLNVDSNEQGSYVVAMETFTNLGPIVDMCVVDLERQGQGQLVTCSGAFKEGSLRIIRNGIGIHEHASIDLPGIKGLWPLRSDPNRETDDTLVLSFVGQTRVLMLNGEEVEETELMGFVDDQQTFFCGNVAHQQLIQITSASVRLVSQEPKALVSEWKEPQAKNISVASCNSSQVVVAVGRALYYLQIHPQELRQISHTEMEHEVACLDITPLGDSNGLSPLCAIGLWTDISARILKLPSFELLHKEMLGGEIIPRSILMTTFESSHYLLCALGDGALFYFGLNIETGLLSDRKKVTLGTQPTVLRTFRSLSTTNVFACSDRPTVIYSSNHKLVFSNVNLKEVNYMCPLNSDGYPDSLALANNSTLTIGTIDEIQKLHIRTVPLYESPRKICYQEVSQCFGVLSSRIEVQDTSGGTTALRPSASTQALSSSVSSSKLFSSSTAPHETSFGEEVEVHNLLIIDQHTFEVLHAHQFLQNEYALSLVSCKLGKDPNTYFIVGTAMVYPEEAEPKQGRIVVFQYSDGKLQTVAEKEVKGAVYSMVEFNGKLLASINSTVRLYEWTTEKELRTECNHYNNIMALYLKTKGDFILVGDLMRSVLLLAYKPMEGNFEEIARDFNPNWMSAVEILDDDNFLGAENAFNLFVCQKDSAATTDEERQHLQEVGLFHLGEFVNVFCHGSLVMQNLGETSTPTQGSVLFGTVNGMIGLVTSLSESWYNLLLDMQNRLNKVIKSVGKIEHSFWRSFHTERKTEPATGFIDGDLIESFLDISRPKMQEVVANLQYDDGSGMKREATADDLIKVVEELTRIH

Dmax at 25 µM [1] [%]	remaining activity at 25 µM [1] [%]	DC50 [1] [nM]	EC50 (Fetal Hemoglobin (HbF)) [nM]	Compound	Emax (Fetal Hemoglobin (HbF)) [%]
82	18	45	999	O=C1CCN(c2cnn3ccc(CN4CCN(CC5CCOCC5)CC4)cc23)C(=O)N1 [Example 160]	84
86	14	14	89	C[C@H]1CN(Cc2ccn3ncc(N4CCC(=O)NC4=O)c3c2)CCN1CC1CCC(F)(F)CC1 [Example 207]	85
82	18	48	266	O=C1CCN(c2cnn3ccc(CC4CCN(Cc5cccnc5)CC4)cc23)C(=O)N1 [Example 17, 1-(5-((1-(pyridin-3-ylmethyl)piperidin-4-yl)methyl)pyrazolo[1,5-a]pyridin-3-yl)dihydropyrimidine-2,4(1H,3H)-dione]	80
80	20	24	–	C[C@H]1C[C@H](Cc2ccn3ncc(N4CCC(=O)NC4=O)c3c2)CCN1C(=O)N1CCCC1 [Example 295]	–
67	33	199	–	CC(C)(C1CCOCC1)N1CCN(Cc2ccn3ncc(N4CCC(=O)NC4=O)c3c2)CC1 [Example 182, 1-(5-((4-(2-(tetrahydro-2H-pyran-4-yl)propan-2-yl)piperazin-1-yl)methyl)pyrazolo[1,5-a]pyridin-3-yl)dihydropyrimidine-2,4(1H,3H)-dione]	–
64	36	260	–	O=C1CCN(c2cnn3ccc(CN4CCN5CCOC[C@@H]5C4)cc23)C(=O)N1 [Example 264, (S)-1-(5-((hexahydropyrazino[2,1-c][1,4]oxazin-8(1H)-yl)methyl)pyrazolo[1,5-a]pyridin-3-yl)dihydropyrimidine-2,4(1H,3H)-dione]	–
87	13	108	–	CC(C)CN1CC[C@@H](Cc2ccn3ncc(-n4ccc(=O)[nH]c4=O)c3c2)C[C@@H]1C [Example 346, 1-(5-(((2S,4R)-1-isobutyl-2-methylpiperidin-4-yl)methyl)pyrazolo[1,5-a]pyridin-3-yl)pyrimidine-2,4(1H,3H)-dione]	–
89	11	24	–	C[C@H]1C[C@H](Cc2ccn3ncc(-n4ccc(=O)[nH]c4=O)c3c2)CCN1CC1CCC(F)(F)CC1 [Example 268, 1-(5-(((2S,4R)-1-((4,4-difluorocyclohexyl)methyl)-2-methylpiperidin-4-yl)methyl)pyrazolo[1,5-a]pyridin-3-yl)pyrimidine-2,4(1H,3H)-dione]	–
65	35	65	–	CC(C)CN1CCC(Cc2ccn3ncc(N4CCC(=O)NC4=O)c3c2)CC1(C)C (stereo not drawn) [Example 79, 1-(5-((1-isobutyl-2,2-dimethylpiperidin-4-yl)methyl)pyrazolo[1,5-a]pyridin-3-yl)dihydropyrimidine-2,4(1H,3H)-dione]	–
74	26	150	–	O=C1CCN(c2cnn3ccc(CC4CCN(S(=O)(=O)c5ccccc5)CC4)cc23)C(=O)N1 [Example 91]	–
35	65	290	–	O=C1CCN(c2cnn3ccc(CC4(F)CCN(Cc5ccccc5)CC4)cc23)C(=O)N1 [Example 126, 1-(5-((1-benzyl-4-fluoropiperidin-4-yl)methyl)pyrazolo[1,5-a]pyridin-3-yl)dihydropyrimidine-2,4(1H,3H)-dione]	–
82	18	34	–	O=C1CCN(c2cnn3ccc(CC4CCN(CC5CCC5)CC4)cc23)C(=O)N1 [Example 18, 1-(5-((1-(cyclobutylmethyl)piperidin-4-yl)methyl)pyrazolo[1,5-a]pyridin-3-yl)dihydropyrimidine-2,4(1H,3H)-dione]	–
73	27	3140	–	O=C1CCN(c2cnn3ccc(CC4CCN(CCO)CC4)cc23)C(=O)N1 [Example 35, 1-(5-((1-(2-hydroxyethyl)piperidin-4-yl)methyl)pyrazolo[1,5-a]pyridin-3-yl)dihydropyrimidine-2,4(1H,3H)-dione]	–
72	28	108	–	C[C@H]1CN(Cc2ccn3ncc(N4CCC(=O)NC4=O)c3c2)CCN1CC1CCO1 (stereo partly drawn) [Example 324, 1-(5-(((3S)-3-methyl-4-(oxetan-2-ylmethyl)piperazin-1-yl)methyl)pyrazolo[1,5-a]pyridin-3-yl)dihydropyrimidine-2,4(1H,3H)-dione]	–
66	34	2790	–	CN1CCC(Cc2ccn3ncc(N4CCC(=O)NC4=O)c3c2)CC1 [Example 49, 1-(5-((1-methylpiperidin-4-yl)methyl)pyrazolo[1,5-a]pyridin-3-yl)dihydropyrimidine-2,4(1H,3H)-dione]	–
0	100	> 25000	–	CC(C)CN1CCN(Cc2ccn3ncc(-n4cc(C5CC5)c(=O)[nH]c4=O)c3c2)C[C@@H]1C [Example 361, (S)-5-cyclopropyl-1-(5-((4-isobutyl-3-methylpiperazin-1-yl)methyl)pyrazolo[1,5-a]pyridin-3-yl)pyrimidine-2,4(1H,3H)-dione]	–
7	93	1600	–	O=C1CCN(c2cnn3ccc(CN4CCN(CC5CCCCC5)C(=O)C4)cc23)C(=O)N1 [Example 242, 1-(5-((4-(cyclohexylmethyl)-3-oxopiperazin-1-yl)methyl)pyrazolo[1,5-a]pyridin-3-yl)dihydropyrimidine-2,4(1H,3H)-dione]	–
86	14	31	–	C[C@H]1CN(Cc2ccn3ncc(N4CCC(=O)NC4=O)c3c2)CCN1CC1(C)CCC1 [Example 322, (S)-1-(5-((3-methyl-4-((1-methylcyclobutyl)methyl)piperazin-1-yl)methyl)pyrazolo[1,5-a]pyridin-3-yl)dihydropyrimidine-2,4(1H,3H)-dione]	–
79	21	79	–	O=C1CCN(c2cnn3ccc(CN4CCN(CC5CCCOC5)CC4)cc23)C(=O)N1 (stereo not drawn) [Example 162]	–
37	63	916	–	C[C@H]1CN(Cc2ccn3ncc(N4CCC(=O)NC4=O)c3c2)CCN1C(=O)C1CCCCC1 [Example 342, (S)-1-(5-((4-(cyclohexanecarbonyl)-3-methylpiperazin-1-yl)methyl)pyrazolo[1,5-a]pyridin-3-yl)dihydropyrimidine-2,4(1H,3H)-dione]	–
84	16	28	–	O=C1CCN(c2cnn3ccc(CC4CCN(CC5CCOC5)CC4)cc23)C(=O)N1 (stereo not drawn) [Example 14, 1-(5-((1-((tetrahydrofuran-3-yl)methyl)piperidin-4-yl)methyl)pyrazolo[1,5-a]pyridin-3-yl)dihydropyrimidine-2,4(1H,3H)-dione]	–
